Measurements: patent US7136698B2 (priority 1996, dated 2006)

Assay: Current density and goserelin flux: constant current electrotransport delivery
Type: in vivo, human
Method: This study was undertaken to evaluate the relationship between current density and drug flux in the transdermal electrotransport delivery of goserelin. The study involved the application of electrotransport devices, applying constant current, to 12 normal male volunteers for a duration of 8 hours.
The two electrotransport treatment regimens in this study differed only in applied current density levels. The electrotransport devices delivered goserelin through the skin from polyvinyl alcohol (PVOH)-based donor hydrogels having a skin-contact surface area of 4 cm^2. The gels contained an aqueous goserelin solution. The current density levels used in this study were […]. After an 8 hour treatment period, the electrotransport devices were removed. The skin site was then washed to remove any residual goserelin. All 12 volunteers received each treatment seven days apart.
For each treatment, seven blood samples were taken over a 24 hour period commencing with the application of current from the electrotransport devices. Serum goserelin concentrations from each patient were used to calculate mean drug flux and the mean total amount of drug delivered.

CC(C)C[C@H](NC(=O)[C@@H](COC(C)(C)C)NC(=O)[C@H](Cc1ccc(O)cc1)NC(=O)[C@H](CO)NC(=O)[C@H](Cc1c[nH]c2ccccc12)NC(=O)[C@H](Cc1cnc[nH]1)NC(=O)[C@@H]1CCC(=O)N1)C(=O)N[C@@H](CCCNC(=N)N)C(=O)N1CCC[C@H]1C(=O)NNC(N)=O [goserelin]
average transdermal goserelin flux (applied current density 50 μA/cm^2, 8 hours): 5.8 µg/h
average transdermal goserelin flux (applied current density 100 μA/cm^2, 8 hours): 21.6 µg/h
increase in drug flux (current density rises from 50 to 100 μA/cm^2): almost four-fold increase
